In assay [1] the target is T1, G9a (Homo sapiens, UniProt Q96KQ7).
T1 construct: endogenous in cells; host or cells: MDA-MB-231
T1 sequence (Q96KQ7 1-1210): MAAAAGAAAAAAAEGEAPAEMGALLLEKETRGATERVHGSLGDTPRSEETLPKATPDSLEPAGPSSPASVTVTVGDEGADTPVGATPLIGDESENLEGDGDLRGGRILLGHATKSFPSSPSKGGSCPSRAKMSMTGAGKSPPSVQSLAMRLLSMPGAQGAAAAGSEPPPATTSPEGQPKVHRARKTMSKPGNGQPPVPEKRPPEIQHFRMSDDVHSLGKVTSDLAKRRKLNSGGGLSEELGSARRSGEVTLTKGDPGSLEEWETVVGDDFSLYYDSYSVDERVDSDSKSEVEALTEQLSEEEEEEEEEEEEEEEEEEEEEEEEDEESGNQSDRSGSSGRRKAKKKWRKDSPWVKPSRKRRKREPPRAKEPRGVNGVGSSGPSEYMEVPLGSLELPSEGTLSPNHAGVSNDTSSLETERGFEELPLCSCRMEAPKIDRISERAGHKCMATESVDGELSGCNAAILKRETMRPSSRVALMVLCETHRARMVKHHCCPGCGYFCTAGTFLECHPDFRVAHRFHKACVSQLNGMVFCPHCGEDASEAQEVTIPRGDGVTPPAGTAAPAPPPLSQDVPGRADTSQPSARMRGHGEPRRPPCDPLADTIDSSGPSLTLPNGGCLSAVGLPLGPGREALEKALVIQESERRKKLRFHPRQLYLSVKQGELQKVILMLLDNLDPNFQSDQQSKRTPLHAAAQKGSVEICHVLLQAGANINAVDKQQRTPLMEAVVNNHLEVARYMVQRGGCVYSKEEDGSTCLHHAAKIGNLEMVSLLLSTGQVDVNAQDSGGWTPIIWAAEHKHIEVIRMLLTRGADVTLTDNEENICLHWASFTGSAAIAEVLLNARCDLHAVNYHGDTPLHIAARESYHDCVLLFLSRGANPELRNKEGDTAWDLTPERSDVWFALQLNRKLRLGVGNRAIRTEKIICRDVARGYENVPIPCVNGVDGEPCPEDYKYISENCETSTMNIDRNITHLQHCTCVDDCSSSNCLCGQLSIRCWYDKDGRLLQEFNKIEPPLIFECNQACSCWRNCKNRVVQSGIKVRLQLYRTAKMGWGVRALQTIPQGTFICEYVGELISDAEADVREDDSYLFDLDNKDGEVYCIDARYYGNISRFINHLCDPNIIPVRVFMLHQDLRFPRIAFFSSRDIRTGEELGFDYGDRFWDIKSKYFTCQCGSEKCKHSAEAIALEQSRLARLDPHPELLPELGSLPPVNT
The experiment in a line: H3K9Me2 cell immunofluorescence In-Cell Western (ICW) assay in MDA-MB-231. Type of assay: cell-based. The settings on record: MDA-MB-231 cell line, 48 h exposure. On the procedure: After the incubation, the media was removed and 100 μl fixation and permeabilization solution (2% formaldehyde in PBS) for fixation was added for 30 min. And then use 200 μl 0.1% Triton X100 in PBS washing solution to wash (allow wash to shake on a plate shaker for 5 min). After five washes, cells were blocked for 1 h with 150 μl blocking buffer to each well (1% BSA in PBS) (allow blocking at room temperature with moderate shaking on a plate shaker). After 1 h, remove the blocking buffer from the blocking step and add primary antibody in blocking buffer to cover the bottom of each well. […] The plates were read on an Odyssey CLX (LiCor) scanner at both 800 nm (H3K9me2 signal) and 700 nm (cell tag 700 stain signal) channels. IC50s were calculated using GraphPad Prizm statistical package with sigmoidal variable slope dose response curve fit.

Assay [2] deals with HDAC. Briefly: Homogeneous cellular histone deacetylase assay, Hela. Type of assay: cell-based, human. On the procedure: (§1) The enzymatic activity of HDAC was measured in intact cells using the homogeneous cellular assay method. A cell-permeable peptide Boc-K(Ac)-AMC used as the HDAC substrate, after deacetylation it is cleaved by trypsin to release the fluorescent 7-amino-4-methylcoumarin (AMC) and further quantified.
(§2) The manual assay was developed by Thomas's group. […] After 24 h, 9 μl inhibitors with different concentration were added to the HeLa cells and incubation was continued for 3 h under cell culture conditions. After this treatment period, 10 μl of a 2 mM stock solution of the substrate Boc-K(Ac)-AMC was added into the 96 well plates with Hela cells and inhibitors. […] A549 and K562 cell lines used the same method, respectively. IC50s were calculated using GraphPad Prizm statistical package with sigmoidal variable slope dose response curve fit.

In assay [3] the test system is HDAC. Briefly: Homogeneous cellular histone deacetylase assay, A549. Type of assay: cell-based, human. The settings on record: Supplementary Table 2; NA = not active up to highest concentration tested (100 μM); >100 = IC50 not reached at 100 μM. Here is the method:
as §1, §2

In assay [4] the test system is HDAC. Briefly: Homogeneous cellular histone deacetylase assay, K562. Type of assay: cell-based, human. Here is the method:
as §1, §2

For assay [5], the system named is HEK293 cells. The experiment in a line: Cell anti-proliferation / toxicity assay (CCK-8), HEK293 normal cell line. The settings on record: Homo sapiens, Table 6, 72 h. Type of assay: cell-based. On the procedure:
(§3) Cell anti-proliferation assays were performed to determine the toxicity of these inhibitors. […] These compounds were further evaluated against the control cell line HEK293 to test their toxicity with a non-cancerous cell line.
(§4) And then the cells were exposed to the different inhibitors with various concentrations for 72 h. […] EC50s were calculated using GraphPad Prizm statistical package with sigmoidal variable slope dose response curve fit.

Assay [6] deals with A549 cells. Briefly: Cell anti-proliferation / toxicity assay (CCK-8), A549. Type of assay: cell-based. The settings on record: Homo sapiens. Here is the method: as §3, §4
Where [7] appears, read: Supplementary Table 2, NA = not active up to highest concentration tested (100 μM), >100 = IC50 not reached at 100 μM, read-out: IC50-HDAC Hela.
Where [8] appears, read: Supplementary Table 2, NA = not active up to highest concentration tested (100 μM), >100 = IC50 not reached at 100 μM, read-out: IC50-HDAC K562.
[9] abbreviates: Table 3, Boc-K(Ac)-AMC substrate, intact Hela cells, read-out: Hela IC50.
The mark [10] stands for this setting: Table 6, 72 h, >100 = not reached at highest tested concentration (100 μM).
Where [11] appears, read: Table 3, Boc-K(Ac)-AMC substrate, intact K562 cells, read-out: K562 IC50.

Some results are limits rather than exact numbers.

Broadly, the IC50 is the concentration that inhibits the measured activity by half. Turning to `COc1ccc2c(NCCNC(=O)CCCCCC(=O)NO)nc(N3CCCN(C)CC3)nc2c1` [Compound 22, N1-hydroxy-N7-(2-((7-methoxy-2-(4-methyl-1,4-diazepan-1-yl)quinazolin-4-yl)amino)ethyl)heptanediamide], the IC50 was 60.6 ± 3.66 µM in assay [1], above 100 µM in assay [2] (setting [7]), above 100 µM in assay [3] and above 100 µM in assay [4] (setting [8]).

As to `COc1cc2nc(N3CCCN(C)CC3)nc(NC3CCN(C(=O)CCCCCCC(=O)NO)CC3)c2cc1OC` [Compound 19, 8-(4-((6,7-dimethoxy-2-(4-methyl-1,4-diazepan-1-yl)quinazolin-4-yl)amino)piperidin-1-yl)-N-hydroxy-8-oxooctanamide], the IC50 in assay [1] is 99.6 ± 3.13 µM; in assay [2] (setting [7]), above 100 µM; in assay [3], above 100 µM; in assay [4] (setting [8]), above 100 µM.

The compound `COc1cc2nc(NCCNC(=O)CCCCCC(=O)NO)nc(NC3CCN(Cc4ccccc4)CC3)c2cc1OC` [Compound 5b, N1-(2-((4-((1-benzylpiperidin-4-yl)amino)-6,7-dimethoxyquinazolin-2-yl)amino)ethyl)-N7-hydroxyheptanediamide] had an IC50 in assay [1] of 87.4 ± 5.44 µM. Also, the “HDAC inhibition (in words)” value in assay [2] (candidates tested in both Hela and K562 cell lines, compared with Compound 14) was “did not show decent inhibition of HDAC”.

For orientation: EC50 means the concentration needed to bring the measured effect to its halfway point. Read a low EC50 as an effect from little substance. As for `COc1ccc2c(NC3CCN(Cc4ccccc4)CC3)nc(NCCNC(=O)CCCCCC(=O)NO)nc2c1` [Compound 14, N1-(2-((4-((1-benzylpiperidin-4-yl)amino)-7-methoxyquinazolin-2-yl)amino)ethyl)-N7-hydroxyheptanediamide], the IC50 in assay [1] was 7.14 ± 1.62 µM; in assay [2] (setting [9]), 13.8 ± 1.22 µM; in assay [3] it was above 100 µM; in assay [4] (setting [11]), 5.74 ± 1.23 µM. The EC50 in assay [5] is 19.95 ± 0.19 µM; in assay [6] (setting [10]) it was 36.2 ± 1.76 µM.

`COc1cc2nc(NCCNC(=O)CCCCCCC(=O)NO)nc(NC3CCN(C(C)C)CC3)c2cc1OC` [Compound 4a, N1-hydroxy-N8-(2-((4-((1-isopropylpiperidin-4-yl)amino)-6,7-dimethoxyquinazolin-2-yl)amino)ethyl)octanediamide] had an IC50 in assay [1] of 74.2 ± 1.94 µM.

The compound `COc1cc2nc(NCCNC(=O)CCCC(=O)NO)nc(NC3CCN(C)CC3)c2cc1OC` [Compound 7, N1-(2-((6,7-dimethoxy-4-((1-methylpiperidin-4-yl)amino)quinazolin-2-yl)amino)ethyl)-N5-hydroxyglutaramide] returned an IC50 in assay [1] of 76.7 ± 0.89 µM.

In turn, `COc1cc2nc(NCCNC(=O)CCCC(=O)NO)nc(NC3CCN(C(C)C)CC3)c2cc1OC` [Compound 7a, N1-hydroxy-N5-(2-((4-((1-isopropylpiperidin-4-yl)amino)-6,7-dimethoxyquinazolin-2-yl)amino)ethyl)glutaramide] returned an IC50 in assay [1] of 54.6 ± 3.05 µM.

`COc1ccc2c(NC3CCN(Cc4ccccc4)CC3)nc(NCCNC(=O)CCCC(=O)NO)nc2c1` [Compound 16, N1-(2-((4-((1-benzylpiperidin-4-yl)amino)-7-methoxyquinazolin-2-yl)amino)ethyl)-N5-hydroxyglutaramide]: the IC50 is 90.3 ± 3.75 µM in assay [1], above 100 µM in assay [2] (setting [7]), above 100 µM in assay [3] and above 100 µM in assay [4] (setting [8]). This compound also returned an EC50 in assay [6] (Supplementary Table 4, 72 h, NA = not active up to highest concentration tested (100 μM)) above 100 µM.

For `COc1cc2nc(N3CCCN(C)CC3)nc(NC3CCN(C(=O)CCCCCC(=O)NO)CC3)c2cc1OC` [Compound 20, 7-(4-((6,7-dimethoxy-2-(4-methyl-1,4-diazepan-1-yl)quinazolin-4-yl)amino)piperidin-1-yl)-N-hydroxy-7-oxoheptanamide], the half-maximal inhibitory concentration (IC50) in assay [1] is 97.5 ± 2.78 µM; in assay [2] (setting [7]), above 100 µM; in assay [3], above 100 µM; in assay [4] (setting [8]), above 100 µM.

As for `COc1cc2nc(NCCNC(=O)CCCCCC(=O)NO)nc(NC3CCN(C(C)C)CC3)c2cc1OC` [Compound 5a, N1-hydroxy-N7-(2-((4-((1-isopropylpiperidin-4-yl)amino)-6,7-dimethoxyquinazolin-2-yl)amino)ethyl)heptanediamide], in assay [1], the IC50 turned out to be 66.6 ± 3.98 µM.

Turning to `COc1cc2nc(NCCNC(=O)CCCCCCC(=O)NO)nc(NC3CCN(C)CC3)c2cc1OC` [Compound 4, N1-(2-((6,7-dimethoxy-4-((1-methylpiperidin-4-yl)amino)quinazolin-2-yl)amino)ethyl)-N8-hydroxyoctanediamide], the IC50 in assay [1] was 96.7 ± 1.68 µM.

`COc1ccc2c(NC3CCN(Cc4ccccc4)CC3)nc(NCCNC(=O)CCCCCCC(=O)NO)nc2c1` [Compound 13, N1-(2-((4-((1-benzylpiperidin-4-yl)amino)-7-methoxyquinazolin-2-yl)amino)ethyl)-N8-hydroxyoctanediamide]: the IC50 in assay [1] was 37.8 ± 2.8 µM; in assay [2] (setting [9]), 15.3 ± 0.79 µM; in assay [3], above 100 µM; in assay [4] (setting [11]), 27.8 ± 0.59 µM. Also, the values for the EC50 in assay [5] and in assay [6] (setting [10]) were 57 ± 1.12 µM and above 100 µM, respectively.

Regarding `COc1ccc2c(NC3CCN(C)CC3)nc(NCCNC(=O)CCCC(=O)NO)nc2c1` [Compound 16a, N1-hydroxy-N5-(2-((7-methoxy-4-((1-methylpiperidin-4-yl)amino)quinazolin-2-yl)amino)ethyl)glutaramide], the half-inhibitory concentration (IC50) was 45.7 ± 1.76 µM in assay [1], above 100 µM in assay [2] (setting [7]), above 100 µM in assay [3] and above 100 µM in assay [4] (setting [8]).

As to `COc1ccc2c(NC3CCN(C)CC3)nc(NCCNC(=O)CCCCC(=O)NO)nc2c1` [Compound 15a, N1-hydroxy-N6-(2-((7-methoxy-4-((1-methylpiperidin-4-yl)amino)quinazolin-2-yl)amino)ethyl)adipamide], the 50% inhibitory concentration (IC50) in assay [1] was 47 ± 3.33 µM; in assay [2] (setting [7]), above 100 µM; in assay [3], above 100 µM; in assay [4] (setting [8]), above 100 µM.

In the case of `COc1ccc2c(NC3CCN(Cc4ccccc4)CC3)nc(NCCNC(=O)CCCCC(=O)NO)nc2c1` [Compound 15, N1-(2-((4-((1-benzylpiperidin-4-yl)amino)-7-methoxyquinazolin-2-yl)amino)ethyl)-N6-hydroxyadipamide], the IC50 is 72.1 ± 1.37 µM in assay [1], above 100 µM in assay [2] (setting [7]), above 100 µM in assay [3] and above 100 µM in assay [4] (setting [8]).

The values above are taken from article PMC5609913, “Structure based design, synthesis and activity studies of small hybrid molecules as HDAC and G9a dual inhibitors” (Oncotarget, 2017).
